Test results: patent publication US4987129A, “Cephalosporin derivatives” (priority 1987, dated 1991)
≈ marks a conversion by molar mass, not a printed value. Counter-ions that a name gives are not always drawn. Like-named read-outs stand apart in the source and are kept apart here. Blank lines part the entries; values can stand above or below the molecule they belong to.

Experiments:
[1] = tested on: Staphylococcus aureus Smith; assay: minimum inhibitory concentration (MIC), standard method of Japan Society of Chemotherapy; assay type: cell-based; details: Tables 2A, 2B
Method: (§1) The minimum inhibitory concentration (MIC) of the compounds obtained in the above Examples were measured according to the standard method of Japan Society of Chemotherapy.

[2] = tested on: Citrobacter freundii 1R523; assay: minimum inhibitory concentration (MIC); assay type: cell-based
Method: as §1

[3] = tested on: Citrobacter freundii 1R524; assay: minimum inhibitory concentration (MIC); assay type: cell-based
Method: as §1

[4] = tested on: Citrobacter freundii 1R526; assay: minimum inhibitory concentration (MIC); assay type: cell-based
Method: as §1

[5] = tested on: Citrobacter freundii 1R527; assay: minimum inhibitory concentration (MIC); assay type: cell-based
Method: as §1

[6] = tested on: Citrobacter freundii 1U589; assay: minimum inhibitory concentration (MIC); assay type: cell-based
Method: as §1

[7] = tested on: Citrobacter freundii 1U592; assay: minimum inhibitory concentration (MIC); assay type: cell-based
Method: as §1

[8] = tested on: Citrobacter freundii 5D60-1; assay: minimum inhibitory concentration (MIC); assay type: cell-based
Method: as §1

[9] = tested on: Citrobacter freundii GM7391; assay: minimum inhibitory concentration (MIC); assay type: cell-based
Method: as §1

[10] = tested on: Citrobacter freundii GN7391; assay: minimum inhibitory concentration (MIC); assay type: cell-based
Method: as §1

[11] = tested on: Enterobacter cloacae 908RN; assay: minimum inhibitory concentration (MIC); assay type: cell-based; details: Enterobacter cloacae 908RN
Method: as §1

[12] = tested on: Enterobacter cloacae GN7471; assay: minimum inhibitory concentration (MIC); assay type: cell-based
Method: as §1

[13] = tested on: Enterobacter cloacae IV25; assay: minimum inhibitory concentration (MIC); assay type: cell-based
Method: as §1

[14] = tested on: Escherichia coli GN5482; assay: minimum inhibitory concentration (MIC); assay type: cell-based; details: Tables 2A, 2B
Method: as §1

[15] = tested on: Escherichia coli ML4704; assay: minimum inhibitory concentration (MIC); assay type: cell-based; details: Escherichia coli ML4704; Tables 2A, 2B; read-out: MIC
Method: as §1

[16] = tested on: Klebsiella pneumoniae 4at521; assay: minimum inhibitory concentration (MIC); assay type: cell-based; details: Tables 2A, 2B
Method: as §1

[17] = tested on: Proteus vulgris GN7919; assay: minimum inhibitory concentration (MIC); assay type: cell-based
Method: as §1

[18] = tested on: Pseudomonas aeruginosa 4au542; assay: minimum inhibitory concentration (MIC); assay type: cell-based; details: Tables 2A, 2B
Method: as §1

[19] = tested on: Pseudomonas aeruginosa 5D58-1; assay: minimum inhibitory concentration (MIC); assay type: cell-based; details: 5D581, Tables 2A, 2B
Method: as §1

[20] = tested on: Pseudomonas aeruginosa GN10362; assay: minimum inhibitory concentration (MIC); assay type: cell-based; details: Tables 2A, 2B
Method: as §1

[21] = tested on: Pseudomonas cepacia OF189; assay: minimum inhibitory concentration (MIC); assay type: cell-based; details: Burkholderia cepacia, Tables 2A, 2B
Method: as §1

[22] = tested on: Pseudomonas maltophilia OF247; assay: minimum inhibitory concentration (MIC); assay type: cell-based; details: Stenotrophomonas maltophilia, Tables 2A, 2B
Method: as §1

[23] = tested on: Serratia marcescens GN10857; assay: minimum inhibitory concentration (MIC); assay type: cell-based; details: Tables 2A, 2B
Method: as §1

[24] = in vivo; design: species or system cynomolgus monkeys; details: cynomolgus monkey, 20 mg/kg
Method: 20 mg/kg of compound obtained in the above Example 18 was administered parenterally to cynomolgus monkeys and the half-life in blood was measured.
The concentration of the compound was measured according to HPLC method. Novapack C18 or Microbondapack C18 (both trade name, produced by Waters Co.) was used for analysis. Further, cefpiramide was used as a control drug.

[25] = among existing cephalosporins; known; cited from earlier work
[26] = tested on: Enterobacter cloacae 5D52-2; assay: minimum inhibitory concentration (MIC); assay type: cell-based; details: 5D522
Method: as §1

[27] = tested on: Enterobacter cloacae 5D83-2; assay: minimum inhibitory concentration (MIC); assay type: cell-based; details: 5D832
Method: as §1

[28] = tested on: Enterobacter cloacae IY247; assay: minimum inhibitory concentration (MIC); assay type: cell-based
Method: as §1

[29] = tested on: Staphylococcus aureus IAA498; assay: minimum inhibitory concentration (MIC); assay type: cell-based; details: Tables 2A, 2B
Method: as §1

SMILES: CC(C)(O/N=C(\C(=O)N[C@@H]1C(=O)N2C(C(=O)[O-])=C(C[n+]3ccccc3)CS[C@H]12)c1csc(N)n1)C(=O)O [CAZ, ceftazidime, reference compound]
MIC [1]: 6.25 µg/mL (≈ 11.4 µM)
MIC [2]: 25 µg/mL (≈ 45.7 µM)
MIC [3]: 25 µg/mL (≈ 45.7 µM)
MIC [4]: 25 µg/mL (≈ 45.7 µM)
MIC [5]: 25 µg/mL (≈ 45.7 µM)
MIC [6]: 100 µg/mL (≈ 183 µM)
MIC [7]: 100 µg/mL (≈ 183 µM)
MIC ([8]; 5D601): > 100 µg/mL
MIC [9]: > 100 µg/mL
MIC ([10]; Citrobacter freundii, GN7391): > 100 µg/mL
MIC ([11]; Table 3, clinical isolates resistant to ceftazidime): > 100 µg/mL
MIC ([11]; Tables 2A, 2B): 100 µg/mL (≈ 183 µM)
MIC ([12]; Enterobacter cloacae, GN7471): 3.13 µg/mL (≈ 5.73 µM)
MIC [13]: 50 µg/mL (≈ 91.5 µM)
MIC [14]: 1.56 µg/mL (≈ 2.85 µM)
MIC [15]: 0.05 µg/mL (≈ 0.0915 µM)
MIC [16]: 0.1 µg/mL (≈ 0.183 µM)
MIC [17]: 1.56 µg/mL (≈ 2.85 µM)
MIC [18]: 3.13 µg/mL (≈ 5.73 µM)
MIC [19]: 1.56 µg/mL (≈ 2.85 µM)
MIC [20]: 1.56 µg/mL (≈ 2.85 µM)
MIC [21]: 6.25 µg/mL (≈ 11.4 µM)
MIC [22]: 3.13 µg/mL (≈ 5.73 µM)
MIC [23]: 3.13 µg/mL (≈ 5.73 µM)

half-life [24]: 2.5 h
SMILES: Cc1cc(O)c(C(=O)N[C@@H](C(=O)N[C@@H]2C(=O)N3C(C(=O)O)=C(CSc4nnnn4C)CS[C@H]23)c2ccc(O)cc2)cn1 [Cefpiramide, cefpiramide, reference compound]
half-life in blood [25]: long half-life in blood

half-life [24]: 2.6 h
MIC [1]: 1.56 µg/mL
MIC ([2]; read-out: MIC): 0.78 µg/mL
MIC ([3]; read-out: MIC): 0.39 µg/mL
MIC ([4]; read-out: MIC): 0.39 µg/mL
MIC ([5]; read-out: MIC): 0.2 µg/mL
MIC ([6]; read-out: MIC): 1.56 µg/mL
MIC ([7]; read-out: MIC): 25 µg/mL
MIC ([8]; 5D601, read-out: MIC): 1.56 µg/mL
MIC ([9]; read-out: MIC): 6.25 µg/mL
MIC ([10]; Citrobacter freundii GN7391, Tables 2A, 2B, read-out: MIC): 12.5 µg/mL
MIC [26]: 0.39 µg/mL
MIC [27]: 0.78 µg/mL
MIC ([11]; Table 3, clinical isolates resistant to ceftazidime, read-out: MIC): 12.5 µg/mL
MIC ([11]; Tables 2A, 2B, read-out: MIC): 6.25 µg/mL
MIC ([12]; Enterobacter cloacae GN7471, Tables 2A, 2B, read-out: MIC): 6.25 µg/mL
MIC ([13]; read-out: MIC): 1.56 µg/mL
MIC [28]: 6.25 µg/mL
MIC [14]: 0.025 µg/mL
MIC [15]: 0.012 µg/mL
MIC [16]: 0.012 µg/mL
MIC ([17]; Proteus vulgris GN7919, Tables 2A, 2B, read-out: MIC): 1.56 µg/mL
MIC [18]: 0.2 µg/mL
MIC [19]: 0.05 µg/mL
MIC [20]: 0.05 µg/mL
MIC [21]: 0.025 µg/mL
MIC [22]: 0.39 µg/mL
MIC [23]: 0.78 µg/mL
MIC [29]: 6.25 µg/mL
SMILES: Cc1cc(SCC2=C(C(=O)O)N3C(=O)C(NC(=O)C(=NOC(C)(C)C(=O)NNC(=O)c4ccc(O)c(O)c4)c4csc(N)n4)C3SC2)n2nc(CO)nc2n1 (stereo not shown) [Example 18, 7-{2-[2-amino-1,3-thiazol-4-yl]-2-[1-(3-(3,4-dihydroxybenzoyl)carbazoyl)-1-methylethoxyimino]acetamide}-3-[(2-hydroxymethyl-5-methyl-s-triazolo[1,5-a]pyrimidin-7-yl)thiomethyl]-3-cephem-4-carboxylic acid.sodium salt]
